Data on 29 molecules can be found in patent US20200197418A1, “COMPOUNDS FOR THE TREATMENT OF DISEASES CAUSED BY OXALATE ACCUMULATION” (UNIVERSIDAD DE GRANADA, priority 2017, published 2020).

What is called EC50 is the concentration giving half of the maximal effect.

Where two headings read alike, the source gives them in different places. Marks after values point to notes of the source that are not given here.

For test [1], the system named is Agxt1-KO mouse hepatocyte cultures. Nature of the test: Oxalate reduction assay in primary hepatocyte cultures from hyperoxaluric mice, glycolate-loaded. It is filed as cell-based. The settings on record: for Relative oxalate at 10 μM: compound at 10 μM, Agxt1-/- mouse hepatocytes with 5 mM glycolate, mean ± standard deviation; for EC50: Agxt1-KO mouse hepatocytes, 5 mM glycolate. As for the experimental part:
Isolation and culture of hepatocytes: The isolation of hepatocytes from AGT enzyme-deficient mice was carried out as described in the literature. A total of 3.0×10^5 cells/well were then cultured in 6-well plates in William's E medium supplemented with foetal bovine serum (5%), I-glutamine (2 mM), penicillin (100 U/ml), streptomycin (100 μg/ml), insulin (2.2 mIU/ml) and hydrocortisone (0.3 μg/ml). After 5 h, the medium was switched to serum-free complete William's E medium (Biochrom, Cambridge, UK), and the cells were treated with increasing concentrations of each of the drugs in the presence of 5 mM glycolate. Samples of the culture medium were collected at 24, 48 and 72 h after treatment, to quantify oxalate.
Determination of oxalate: The determination of oxalate excreted into the medium was carried out by assaying in the presence of oxalate oxidase using a commercial kit (Trinity Biotech, Co Wicklow, Ireland), following the manufacturer's indications. GraphPad Prism 5 software was used for the graphical representation of the data as the mean±SD.
The efficacy of reducing oxalate production was measured in primary hepatocyte cultures obtained from hyperoxaluric mice (Agxt1^−/−). Cultures of less than 5 days were used to prevent possible interferences due to cell differentiation. For the short-term increase in the production of oxalate in cells and for obtaining detectable levels in standard enzymatic assays, glycolate was added to the culture medium at a concentration of 5 mM. Firstly, the viability of the hepatocytes treated with increasing concentrations of each drug up to 200 μM in the presence of glycolate was tested in comparative assays with control hepatocytes not treated with a drug and at different times.
Oxalate reduction assays were then carried out. Samples of the culture medium were taken every 24 hours after treatment with each of the compounds under evaluation. In each of these samples was measured the concentration of oxalate excreted into the medium by Agxt1^−/− hepatocytes. The determination of oxalate in the samples was carried out using a colorimetric enzymatic assay based on two consecutive reactions catalysed by the enzymes oxalate oxidase and peroxidase, respectively.

For test [2], the system named is mice with PH-1 (Agxt1-KO). The settings on record: cited from earlier work.
[3] abbreviates: Hepatocyte, 24 h after treatment, read-out: EC50 (24 h), reduced production of oxalate.
Setting [4] is: Hepatocyte, 48 h after treatment, read-out: EC50 (48 h), reduced production of oxalate.
The mark [5] stands for this setting: Hepatocyte, 72 h after treatment, read-out: EC50 (72 h), reduced production of oxalate.

Consider `N.O=C(O)c1cc(-c2ccc(CNc3ccc(Br)cc3)o2)ccc1O`, for which the “Relative oxalate at 10 μM” value in test [1] is listed as 0.373 ± 0.063.

As for `Oc1ccc(-c2ccoc2)cc1O`, in test [1], the “Relative oxalate at 10 μM” value is reported as 1.02 ± 0.3.

On to `O=C(O)c1cc(-c2ccc(OCc3ccccc3)cc2)ccc1O`, for which the “Relative oxalate at 10 μM” value in test [1] stood at 0.8 ± 0.16.

With `COc1cccc(-c2ccc(C(=O)O)c(O)c2)c1`, the “Relative oxalate at 10 μM” value in test [1] amounted to 0.83 ± 0.03.

On to `N.O=C(O)c1cc(-c2ccc(CNc3ccc([N+](=O)[O-])cc3)o2)ccc1O`, for which, in test [1], the “Relative oxalate at 10 μM” value is given as −0.236 ± 0.115.

For `O=C(O)c1ccc(-c2ccncc2)cc1O`, the “Relative oxalate at 10 μM” value in test [1] was found to be 0.88 ± 0.03.

For the molecule `O=C(O)c1cc(-c2ccc(F)cc2F)ccc1O`, the “Relative oxalate at 10 μM” value in test [1] is reported as 0.88 ± 0.08.

Take `O=C(O)c1nnsc1Sc1ccc(Cl)cc1` [CCPST, reference compound]: the “effectiveness in reducing oxalate levels” value in test [2] is reported as “reducing oxalate levels”. Besides, the EC50 in test [1] (24 h after treatment, read-out: EC50 (24 h), reduced production of oxalate) is 25.3 µM; in test [1] (48 h after treatment, read-out: EC50 (48 h), reduced production of oxalate), 32.9 µM; in test [1] (72 h after treatment, read-out: EC50 (72 h), reduced production of oxalate), 33.9 µM.

With `O=C(O)c1ccc(-c2ccccc2COc2cc(F)cc(F)c2)cc1O`, the “Relative oxalate at 10 μM” value in test [1] is given as 0.72 ± 0.16.

In the case of `O=C(O)c1ccc(-c2ccc(O)cc2)cc1O`, in test [1], the “Relative oxalate at 10 μM” value came to 0.82 ± 0.01.

On to `O=C(O)c1ccc(-c2ccco2)cc1O` [drawing 12], for which the “Relative oxalate at 10 μM” value in test [1] was found to be 0.87 ± 0.15.

In the case of `O=Cc1ccc(-c2ccc(O)c(C(=O)O)c2)o1` [Compound 78, 5-(5-formyl-2-furyl)-2-hydroxybenzoic acid], the EC50 in test [1] (setting [3]) amounted to 3.45 µM; in test [1] (setting [4]), 8.36 µM; in test [1] (setting [5]), 11.2 µM.

For `O=C(O)c1cc(-c2ccoc2)ccc1O`, the “Relative oxalate at 10 μM” value in test [1] was found to be 0.89 ± 0.16.

Consider `O=C(O)c1ccc(-c2ccccc2COc2cccc(C(F)(F)F)c2)cc1O`, for which the “Relative oxalate at 10 μM” value in test [1] is on record as 0.62 ± 0.29.

For `O=C(O)c1cc(-c2ccco2)ccc1O` [drawing 13], the “Relative oxalate at 10 μM” value in test [1] is on record as −0.25 ± 0.2.

For `C#CCCCC(=O)Nc1ccc(C(=O)c2ccc(NCc3ccc(-c4ccc(O)c(C(=O)O)c4)o3)cc2)cc1.N`, the “Relative oxalate at 10 μM” value in test [1] is given as 0.144 ± 0.322.

Regarding `O=C(O)c1cc([N+](=O)[O-])c(-c2ccco2)cc1O`, the “Relative oxalate at 10 μM” value in test [1] was 0.86 ± 0.04.

As for `O=C(O)c1cc(-c2ccc(CO)o2)ccc1O`, the “Relative oxalate at 10 μM” value in test [1] is reported as 0.88 ± 0.19.

As for `COc1cc(-c2ccc(C=O)o2)ccc1C(=O)O`, in test [1], the “Relative oxalate at 10 μM” value is given as 0.82 ± 0.04.

For `O=C(O)c1ccc(-c2cccs2)cc1O`, in test [1], the “Relative oxalate at 10 μM” value is 0.74 ± 0.16.

Consider `CC(=O)c1ccc(-c2ccc(C(=O)O)c(O)c2)s1`, for which, in test [1], the “Relative oxalate at 10 μM” value is recorded as 0.89 ± 0.14.

Regarding `O=C(O)c1ccc(-c2ccco2)cc1O` [Compound 73, 4-(2-furyl)-2-hydroxybenzoic acid], the EC50 was determined as 9.35 µM in test [1] (setting [3]) and 92.2 µM in test [1] (setting [4]).

In the case of `COc1ccc(COc2ccc(-c3ccc(C(=O)O)c(O)c3)cc2)cc1`, the “Relative oxalate at 10 μM” value in test [1] is 0.90 ± 0.16.

For the molecule `O=Cc1ccc(-c2ccc(O)c(C(=O)O)c2)o1` [drawing 17], in test [1], the “Relative oxalate at 10 μM” value was −0.06 ± 0.29^a.

For `O=C(O)c1ccc(-c2ccc(CO)o2)cc1O`, the “Relative oxalate at 10 μM” value in test [1] was 0.88 ± 0.01.

As to `O=C(O)c1cc(-c2cccs2)ccc1O`, the “Relative oxalate at 10 μM” value in test [1] is reported as 0.82 ± 0.01.

Take `O=Cc1ccc(-c2ccc(C(=O)O)c(O)c2)o1`: the “Relative oxalate at 10 μM” value in test [1] was found to be 0.88 ± 0.18.

As to `O=C(O)c1cc(-c2ccco2)ccc1O` [Compound 74, 5-(2-furyl)-2-hydroxybenzoic acid], the figures for the EC50 in test [1] (setting [3]), in test [1] (setting [4]) and in test [1] (setting [5]) were 3.59 µM, 7.88 µM and 9.2 µM, respectively.

Consider `O=C(O)c1cc(-c2ccccc2COc2cccc(C(F)(F)F)c2)ccc1O`, for which the “Relative oxalate at 10 μM” value in test [1] amounted to 0.68 ± 0.21.
